# Legend:
# 5 HT2C receptor = molecular target: T1, 5 HT2C receptor (Homo sapiens, UniProt P28335); test: affinity to the 5 HT2C receptor; type: binding
# T1 sequence (P28335 33-458): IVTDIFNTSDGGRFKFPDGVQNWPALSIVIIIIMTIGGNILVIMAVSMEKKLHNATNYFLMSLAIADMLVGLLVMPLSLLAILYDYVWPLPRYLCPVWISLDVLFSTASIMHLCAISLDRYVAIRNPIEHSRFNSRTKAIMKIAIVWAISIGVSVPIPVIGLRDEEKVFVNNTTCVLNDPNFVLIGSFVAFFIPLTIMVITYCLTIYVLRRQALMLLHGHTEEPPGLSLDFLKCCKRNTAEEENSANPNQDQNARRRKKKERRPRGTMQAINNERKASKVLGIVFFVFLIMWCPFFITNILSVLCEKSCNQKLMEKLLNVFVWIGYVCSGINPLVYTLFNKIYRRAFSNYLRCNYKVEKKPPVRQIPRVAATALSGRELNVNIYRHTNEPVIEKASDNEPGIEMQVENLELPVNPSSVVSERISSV
# 5-HT2A receptors = 5-HT2A receptors (UniProt P14842); test: in-vitro affinity to 5-HT2A receptors, [3H]ketanserine displacement (Example A1); type: binding
# From the text: The 5-HT2A receptors are exposed both to [^3H]ketanserine (a substance known for its affinity to the receptor) and also to the test compound. The decrease in the affinity of [^3H]ketanserine to the receptor is an indication of the affinity of the test substance to the 5-HT2A receptor.
Compound,IC50 (5 HT2C receptor) [nM],IC50 (5-HT2A receptors) [nM]
"CN1CCC(N(C)Cc2cnn(-c3ccc(-c4ccc(F)cc4)cc3)c2-c2ccco2)C1 (stereo not drawn) [Example 529, [1-(4′-Fluorobiphenyl-4-yl)-5-furan-2-yl-1H-pyrazol-4-ylmethyl]methyl-(1-methylpyrrolidin-3-yl)amine]",434,0.514
"COc1ccc(-c2ccc(-n3ncc(CN4CCNCC4)c3-c3ccco3)cc2)cc1 [Example 530, 1-[5-Furan-2-yl-1-(4′-methoxybiphenyl-4-yl)-1H-pyrazol-4-ylmethyl]piperazine]",200,1.1
"CN(C)Cc1cnn(-c2ccc(-c3ccc4c(c3)OCO4)cc2)c1-c1ccco1 [Example 531, [1-(4-Benzo-1,3-dioxol-5-ylphenyl)-5-furan-2-yl-1H-pyrazol-4-ylmethyl]dimethylamine]",74,1.4
"CN1CCN(Cc2cnn(-c3ccc(-c4ccc(F)cc4)cc3)c2-c2ccco2)CC1 [Example 532, 1-[1-(4′-Fluorobiphenyl-4-yl)-5-furan-2-yl-1H-pyrazol-4-ylmethyl]-4-methylpiperazine]",190,1.48
"CCN1CCN(Cc2cnn(-c3ccc(-c4ccc5c(c4)OCO5)cc3)c2-c2ccco2)CC1 [Example 533, 1-[1-(4-Benzo-1,3-dioxol-5-ylphenyl)-5-furan-2-yl-1H-pyrazol-4-ylmethyl]-4-ethylpiperazine]",224,1.6
"CCN(CC)Cc1cnn(-c2ccc(-c3ccc(F)cc3)cc2)c1-c1cccc(OC)c1 [Example 676, Diethyl-[1-(4′-fluorobiphenyl-4-yl)-5-(3-methoxyphenyl)-1H-pyrazol-4-ylmethyl]amine]",–,130
"CCCCNCc1cnn(-c2ccc(-c3ccc(F)cc3)cc2)c1-c1ccco1 [Example 677, Butyl-[1-(4′-fluorobiphenyl-4-yl)-5-furan-2-yl-1H-pyrazol-4-ylmethyl]amine]",–,130
"O=C(O)Cc1cnn(-c2ccccc2F)c1-c1cccs1 [Example 678, 1-(2-Fluorophenyl)-5-(2-thienyl)-4-pyrazoleacetic acid]",–,160
"Fc1ccccc1-c1c(CN2CCN(Cc3ccccc3)CC2)cnn1-c1ccc(-c2ccccc2)cc1 [Example 679, 1-Benzyl-4-[1-biphenyl-4-yl-5-(2-fluorophenyl)-1H-pyrazol-4-ylmethyl]piperazine]",–,170
"OCC(O)CNCc1cnn(-c2ccc(-c3ccc(F)cc3)cc2)c1-c1ccco1 (stereo not drawn) [Example 680, 3-{[1-(4′-Fluorobiphenyl-4-yl)-5-furan-2-yl-1H-pyrazol-4-ylmethyl]amino}propane-1,2-diol]",–,170
"Fc1ccc(-c2ccc(-n3ncc(CNC4CN5CCC4CC5)c3-c3ccco3)cc2)cc1 (stereo not drawn) [Example 681, (1-Azabicyclo[2.2.2]oct-3-yl)-[1-(4′-fluorobiphenyl-4-yl)-5-furan-2-yl-1H-pyrazol-4-ylmethyl]amine]",–,180
"CCN(CC)Cc1cnn(-c2ccc(-c3ccc(F)cc3)cc2)c1-c1cccc(Cl)c1 [Example 682, [5-(3-Chlorophenyl)-1-(4′-fluorobiphenyl-4-yl)-1H-pyrazol-4-ylmethyl]diethylamine]",–,190
"Fc1ccc(-c2ccc(-n3ncc(CN4CCN(CCc5ccc(F)cc5F)CC4)c3-c3cccc(Cl)c3)cc2)cc1 [Example 683, 1-[5-(3-Chlorophenyl)-1-(4′-fluorobiphenyl-4-yl)-1H-pyrazol-4-ylmethyl]-4-[2-(2,4-difluorophenyl)ethyl]piperazine]",–,190
"CCCN1CCN(Cc2cnn(-c3ccc(-c4ccc(F)cc4)cc3)c2-c2cccc(OC)c2)CC1 [Example 684, 1-[1-(4′-Fluorobiphenyl-4-yl)-5-(3-methoxyphenyl)-1H-pyrazol-4-ylmethyl]-4-propylpiperazine]",–,190
"COCCN1CCN(Cc2cnn(-c3ccc(-c4ccc(F)cc4)cc3)c2-c2cccc(OC)c2)CC1 [Example 685, 1-[1-(4′-Fluorobiphenyl-4-yl)-5-(3-methoxyphenyl)-1H-pyrazol-4-ylmethyl]-4-(2-methoxyethyl)piperazine]",–,190
"Fc1ccc(-c2ccc(-n3ncc(CN4CCN(C5CCCC5)CC4)c3-c3cccc(Cl)c3)cc2)cc1 [Example 686, 1-[5-(3-Chlorophenyl)-1-(4′-fluorobiphenyl-4-yl)-1H-pyrazol-4-ylmethyl]-4-cyclopentylpiperazine]",–,200
Cc1nn(-c2ccccc2)c(C)c1CN1CCN(C(=O)[C@]2(C)CC[C@@H](C(=O)O)C2(C)C)CC1 [Example 687],–,210

Compound,IC50 (5 HT2C receptor) [nM],IC50 (5-HT2A receptors) [nM]
"COc1ccc(-c2ccc(-n3ncc(CNCc4nccs4)c3-c3ccco3)cc2)cc1 [Example 688, [5-Furan-2-yl-1-(4′-methoxybiphenyl-4-yl)-1H-pyrazol-4-ylmethyl]thiazol-2-ylmethylamine]",–,220
"Cc1ccoc1-c1c(CN2CCN(C(=O)OC(C)(C)C)CC2)cnn1-c1ccc(-c2ccc(F)cc2)cc1 [Example 689, tert-Butyl 4-[1-(4′-fluorobiphenyl-4-yl)-5-(3-methyl-2-furanyl)-1H-pyrazol-4-ylmethyl]piperazine-1-carboxylate]",–,220
"Cc1noc(C)c1-c1c(CN2CCC(O)C2)cnn1-c1ccc(-c2ccc(F)cc2)cc1 (stereo not drawn) [Example 690, 1-[5-(3,5-Dimethylisoxazol-4-yl)-1-(4′-fluorobiphenyl-4-yl)-1H-pyrazol-4-ylmethyl]pyrrolidin-3-ol]",–,240
"Cc1noc(C)c1-c1c(CN2CCNCC2)cnn1-c1ccc(-c2ccc(F)cc2)cc1 [Example 691, 1-[5-(3,5-Dimethylisoxazol-4-yl)-1-(4′-fluorobiphenyl-4-yl)-1H-pyrazol-4-ylmethyl]piperazine]",–,250
"Fc1ccc(-c2ccc(-n3ncc(CN4CCC(N5CCCC5)CC4)c3-c3ccoc3)cc2)cc1 [Example 692, 1-[1-(4′-Fluorobiphenyl-4-yl)-5-furan-3-yl-1H-pyrazol-4-ylmethyl]-4-pyrrolidin-1-ylpiperidine]",–,260
"O=C1CN(Cc2cnn(-c3ccc(-c4ccc5c(c4)OCO5)cc3)c2-c2ccco2)CCN1 [Example 693, 4-[1-(4-Benzo-1,3-dioxol-5-ylphenyl)-5-furan-2-yl-1H-pyrazol-4-ylmethyl]piperazin-2-one]",–,280
"O=C1NCCCCC1NCc1cnn(-c2ccc(-c3ccc(F)cc3)cc2)c1-c1ccco1 (stereo not drawn) [Example 694, 3-{[1-(4′-Fluorobiphenyl-4-yl)-5-furan-2-yl-1H-pyrazol-4-ylmethyl]amino}azepan-2-one]",–,290
"COc1ccc(-c2ccc(-n3ncc(CNCc4cc5ccccc5n4C)c3-c3ccco3)cc2)cc1 [Example 695, [5-Furan-2-yl-1-(4′-methoxybiphenyl-4-yl)-1H-pyrazol-4-ylmethyl]-(1-methyl-1H-indol-2-ylmethyl)amine]",–,300
"Cc1noc(C)c1-c1c(CN2CCN(C)CC2)cnn1-c1ccc(-c2ccc(F)cc2)cc1 [Example 696, 1-[5-(3,5-Dimethylisoxazol-4-yl)-1-(4′-fluorobiphenyl-4-yl)-1H-pyrazol-4-ylmethyl]-4-methylpiperazine]",–,320
"COc1cc2c(cc1OC)CN(Cc1cnn(-c3ccc(-c4ccc(F)cc4)cc3)c1-c1ccco1)CC2 [Example 697, 2-[1-(4′-Fluorobiphenyl-4-yl)-5-furan-2-yl-1H-pyrazol-4-ylmethyl]-6,7-dimethoxy-1,2,3,4-tetrahydroisoquinoline]",–,350
"COc1cccc(-c2c(CN3CCC(N4CCCC4)CC3)cnn2-c2ccc(-c3ccc(F)cc3)cc2)c1 [Example 698, 1-[1-(4′-Fluorobiphenyl-4-yl)-5-(3-methoxyphenyl)-1H-pyrazol-4-ylmethyl]-4-pyrrolidin-1-ylpiperidine]",–,420
"CC(=O)N(CCN1CCCCC1)Cc1cnn(-c2ccc(-c3ccc(F)cc3)cc2)c1-c1ccco1 [Example 699, N-[1-(4′-Fluorobiphenyl-4-yl)-5-furan-2-yl-1H-pyrazol-4-ylmethyl]-N-(2-piperidin-1-ylethyl)acetamide]",–,430
"COc1ccc(-c2ccc(-n3ncc(CN(Cc4nccn4C)Cc4nccn4C)c3-c3ccco3)cc2)cc1 [Example 700, [5-Furan-2-yl-1-(4′-methoxybiphenyl-4-yl)-1H-pyrazol-4-ylmethyl]bis-(1-methyl-1H-imidazol-2-ylmethyl)amine]",–,450
"CN(C)CCN1CCN(Cc2cnn(-c3ccc(-c4ccc(F)cc4)cc3)c2-c2cccc(Cl)c2)CC1 [Example 701, (2-{4-[5-(3-Chlorophenyl)-1-(4′-fluorobiphenyl-4-yl)-1H-pyrazol-4-ylmethyl]piperazin-1-yl}ethyl)dimethylamine]",–,470
"Fc1ccc(-c2ccc(-n3ncc(CN4CCN(CCN5CCCCC5)CC4)c3-c3cccc(Cl)c3)cc2)cc1 [Example 702, 1-[5-(3-Chlorophenyl)-1-(4′-fluorobiphenyl-4-yl)-1H-pyrazol-4-ylmethyl]-4-(2-piperidin-1-ylethyl)piperazine]",–,470
"Fc1ccc(-c2ccc(-n3ncc(CN4CCN(CCN5CCCC5)CC4)c3-c3cccc(Cl)c3)cc2)cc1 [Example 703, 1-[5-(3-Chlorophenyl)-1-(4′-fluorobiphenyl-4-yl)-1H-pyrazol-4-ylmethyl]-4-(2-pyrrolidin-1-ylethyl)piperazine]",–,480
{[1-(4′-Fluorobiphenyl-4-yl)-5-furan-2-yl-1H-pyrazol-4-ylmethyl]methylamino}phenylpropan-1-ol [Example 587],–,19
